Data on six compounds can be found in PMC10866072, “Design, synthesis, molecular modelling and biological evaluation of novel 6-amino-5-cyano-2-thiopyrimidine derivatives as potent anticancer agents against leukemia and apoptotic inducers” (Journal of Enzyme Inhibition and Medicinal Chemistry, 2024).

In one data set the test system is EGFRWT. Details: method as in PMID 32959865. Conditions: cited from earlier work.
For a further data set, the system named is mutant EGFRT790M. Details: method as in PMID 32959865. Conditions: cited from earlier work.
Another data set deals with caspase-3 in HepG-2. Details: method as in PMID 32959865. Conditions: cited from earlier work.
Data set [1] has as its system HCT-116, HepG-2, MCF-7, and A549 cells. Details: method as in PMID 32959865. As to conditions: cited from earlier work.
The next data set has as its system tumour cell lines. On the set-up: method as in PMID 32027179. Conditions: broad spectrum antitumor activity, cited from earlier work.
A further data set deals with SW480. On the set-up: method as in PMID 32645482. Conditions: cited from earlier work.
In another data set the test system is MGC-803 cell line. Details: method as in PMID 27771599. As to conditions: cited from earlier work.
A further data set concerns GES1. Details: method as in PMID 27771599. Conditions: cited from earlier work.
The subject of another data set is A549. On the set-up: method as in PMID 31525523. Conditions: cited from earlier work.
The test system of another data set is HeLa. On the set-up: method as in PMID 31525523. Conditions: cited from earlier work.
Data set [2] can be described thus: MTT cytotoxicity on normal cells. The class given is cell-based. As to conditions: human, WI-38 cells (normal lung fibroblasts), WI-38 normal cells, mean ± SD of three experiments, read-out: IC50 (cytotoxic activity). The method, then: The American Type Culture Collection provided WI-38 cells (normal lung cells). The cells were grown in DMEM with 10% heat-inactivated FBS (Hyclone), 10 µg/ml of insulin (Sigma), and 1% penicillin-streptomycin. The remaining chemicals and reagents were all from Sigma or Invitrogen. The MTT test was used to evaluate cytotoxicity, as described previously. Graph pad Prism software (San Diego, CA) was used to estimate the 50% inhibitory concentration (IC50) from dose response curve graphic plots for each conc.

One may read the IC50 as the concentration needed to halve the response being measured. The term GI50 denotes the concentration at which growth is held to half of that of the control.

Consider `CCCCSC1=NC(c2ccccc2)=C(C#N)C(Nc2ccccn2)N1` (stereo not drawn) [Compound XIV], for which the IC50 is 0.09 µM in the data set on EGFRWT and 4.03 µM in the data set on mutant EGFRT790M. The “increase of caspase-3 level compared to the control” value in the data set with caspase-3 in HepG-2 is given as 6.5 times. Moreover, in [1], the “activity relative to erlotinib” value is listed as 4.5- to 8.4 fold.

For `N#CC1=C(c2ccc(F)cc2)N=C(N/N=C/c2c[nH]c3ccccc23)NC1N1CCOCC1` (stereo not drawn) [Compound XVII], the “TGI (total growth inhibition)” value in the data set with tumour cell lines is 28.66 µM. In addition, the GI50 in the data set on tumour cell lines (read-out: GI50 (median growth inhibition)) is 6.15 µM.

`NC1=NC(NC(=O)Nc2ccc(Cl)c(C(F)(F)F)c2)=CC(c2ccccc2)N1` (stereo not drawn) [XIX]: the IC50 in the data set on SW480 is 11.1 µM.

On to `C/C(=N\Nc1nc(Sc2ccccc2)nc2c1nnn2-c1ccccc1)c1ccccc1O` [XXII], for which the IC50 in the data set on MGC-803 cell line is 0.87 µM; with GES1, 56.2 µM.

As for `COc1cc(C2=NC3N=C(C)C(C(C)=O)C(c4ccc([N+](=O)[O-])cc4)N3N2)cc(OC)c1OC` (stereo not drawn) [XXI], the results for the IC50 with A549 and with HeLa were 1.02 µM and 0.75 µM, respectively.

Consider `C#Cc1cccc(Nc2ncnc3cc(OCCOC)c(OCCOC)cc23)c1` [erlotinib], for which, in [2], the IC50 turned out to be 22.8 ± 0.65 µM.
